Source: publication PMC11944677, “Integrating Surface Plasmon Resonance and Docking Analysis for Mechanistic Insights of Tryptase Inhibitors” (Molecules, 2025)

Molecular target: T1, human tryptase beta-2 (hTPSB2) (Homo sapiens, UniProt P20231)
T1 construct: gene TPSB2
Experiment: biochemical

T1 sequence (P20231 31-275): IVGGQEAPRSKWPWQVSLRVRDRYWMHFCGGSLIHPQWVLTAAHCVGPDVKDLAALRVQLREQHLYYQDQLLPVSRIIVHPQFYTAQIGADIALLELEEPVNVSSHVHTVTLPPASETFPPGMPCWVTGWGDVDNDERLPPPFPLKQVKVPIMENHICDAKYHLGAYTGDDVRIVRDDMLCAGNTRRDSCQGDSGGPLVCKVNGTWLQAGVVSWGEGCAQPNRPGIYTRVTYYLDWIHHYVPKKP

Structure (SMILES) | Kd [nM]
C[Si](C)(O[Si](C)(C)c1coc2ccc(C(=O)N3CCC(c4cccc(CN)c4)CC3)cc12)c1coc2ccc(C(=O)N3CCC(c4cccc(CN)c4)CC3)cc12 [#2d, compound #2d] | 2.1
C[Si](C)(O)c1coc2ccc(C(=O)N3CCC(c4cccc(CN)c4)CC3)cc12 [#2m, compound #2m] | 81
